Series [1] concerns the target T1, peroxidase activity (human TPO) in HEK-TPOA7 cell lysate (Homo sapiens, UniProt P07202).
T1 construct: We have transfected the full length of TPO, which is 933 amino acids; expressed in transfected cells; host or cells: HEK293T (clone HEK-TPOA7), lentiviral transduction, CMV promoter
T1 sequence (P07202 19-933): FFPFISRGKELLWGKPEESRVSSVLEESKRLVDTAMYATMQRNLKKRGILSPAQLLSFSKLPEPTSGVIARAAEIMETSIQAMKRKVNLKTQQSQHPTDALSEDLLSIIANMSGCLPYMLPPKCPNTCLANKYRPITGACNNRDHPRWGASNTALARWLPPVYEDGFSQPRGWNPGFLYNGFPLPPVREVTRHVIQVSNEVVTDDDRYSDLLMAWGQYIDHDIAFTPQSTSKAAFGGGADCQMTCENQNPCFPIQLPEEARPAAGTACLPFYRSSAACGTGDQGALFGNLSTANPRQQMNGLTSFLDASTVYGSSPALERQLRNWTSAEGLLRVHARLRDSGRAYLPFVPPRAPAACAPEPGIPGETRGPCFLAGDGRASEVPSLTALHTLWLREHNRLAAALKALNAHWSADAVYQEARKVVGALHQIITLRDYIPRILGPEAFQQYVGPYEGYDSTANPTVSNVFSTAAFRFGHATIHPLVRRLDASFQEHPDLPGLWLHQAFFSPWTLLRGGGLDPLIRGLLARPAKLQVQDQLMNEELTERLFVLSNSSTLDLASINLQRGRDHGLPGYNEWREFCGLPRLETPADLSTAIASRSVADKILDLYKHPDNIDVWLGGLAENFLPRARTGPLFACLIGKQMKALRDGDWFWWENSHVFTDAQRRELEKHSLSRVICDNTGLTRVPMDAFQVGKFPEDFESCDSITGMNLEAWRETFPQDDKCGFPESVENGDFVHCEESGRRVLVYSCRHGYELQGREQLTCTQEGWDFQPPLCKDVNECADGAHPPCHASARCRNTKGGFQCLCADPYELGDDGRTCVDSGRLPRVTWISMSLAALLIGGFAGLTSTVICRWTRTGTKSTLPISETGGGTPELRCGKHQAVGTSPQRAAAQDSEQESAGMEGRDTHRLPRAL
Nature of the series: TPO luminol (Lumi) assay, HEK-TPOA7 cell lysate. It is filed as biochemical. An excerpt:
(§1) A human TPO (hTPO) sequence was obtained from NCBI (NM_000547.5) and it was used for the production of lentiviral vector by VectorBuilder (Malvern, USA) containing the gene of interest under the transcriptional control of CMV promotor and EGFP gene linked with puromycin resistance gene under control of EFS promotor (pLV[Exp]-CMV > {NM_000547_5}-EFS > EGFP:T2A:Puro). The purified vector was used to produce lentiviral particles in Lenti-X cell line (TakaraBio Inc., Göteborg, Sweden). […] The medium was replaced 3 h after exposure. The conditioned lentiviral medium was harvested 48 and 72 h later, frozen and stored at − 80 °C. HEK293T cells were exposed to the conditioned lentiviral medium supplemented with Polybrene (10 µg/mL, Merck, Prague, Czech Republic). After 24 h, the medium was replaced with fresh medium with puromycin (Invivogen, Toulouse, France) as a selection factor. After the puromycin treatment, cells were sorted on a FACS sorter FACSAria Fusion (BD Biosciences, Prague, Czech Republic) to obtain GFP-expressing cell clones that were further characterized.

In series [2] the target is T2, human TPO (HEK-TPOA7 cell lysate) (Homo sapiens, UniProt P07202).
T2 construct: We have transfected the full length of TPO, which is 933 amino acids; expressed in transfected cells; host or cells: HEK293T (clone HEK-TPOA7), lentiviral transduction, CMV promoter
T2 sequence (P07202 19-933): T1 sequence (P07202 19-933)
Nature of the series: AUR-TPO assay, HEK-TPOA7 cell lysate. It is filed as biochemical.
Excerpt: as §1
Lower final volume and concentration of H2O2 were used. […] Nonspecific influence of the chemicals themselves on the fluorescence signal was assessed by measuring the fluorescence signal after co-incubating the chemicals (30 min at 37 °C) with 0.3 µM Resorufin and 40 µM H2O2 with the same excitation/emission spectra as with the AUR.
Test of the effect of H2O2 concentration on the TPO activity measurement in the AUR assay: To assess the impact of H2O2 level on the AUR assay, a subset of chemicals (Table S6) was subjected to analysis at two H2O2 concentrations, 40 µM and 300 µM, to evaluate any variance in response.

Series [3] has as its system peroxidase activity (TPO) in Nthy-ori 3-1 cell lysate.
Method: (§2) Briefly, the cells were washed with phosphate-buffered saline (PBS), scraped, resuspended in PBS, and centrifuged for 5 min at 150 rcf. The supernatant was discarded, the pellet was lysed with 0.1% m/v sodium deoxycholate (DC, in PBS) and incubated on ice for 20 min. Lysed cells were centrifuged for 5 min at 12,000 rcf to extract the soluble protein fraction. The supernatant protein concentration was measured using the Bio-Rad DC-protein assay following the manufacturer’s protocol. The cell lysates were kept at − 80 °C for longer-term storage.
(§3) It was performed in the white 96-well plates with total volume of reaction mixture 200 μL per well containing 100 μL cell lysate with protein content of 0.12 mg/mL (final 0.06 mg/mL), 100 μl GNE solution [1 M glycine–NaOH (pH 9.0), 1 mM EDTA] with the test chemical in MeOH (1% MeOH final concentration). The plate was incubated for 30 min with gentle shaking at 37 °C.
(§4) For the data analysis, GraphPad Prism™ (GraphPad Software, San Diego, USA) was used for curve-fitting and IC50 or IC20 calculation. The signal (RLUs or fluorescence intensity) from the wells-containing cell lysate and chemical was background corrected (average RLUs or fluorescence intensity of lysate-free wells), then normalized to the solvent control (100% activity). Fold change of signal intensity was calculated by dividing the signal from cell lysate-containing wells by the signal from the background (average of cell lysate-free wells).
Series [4] concerns TPO (CHO-TPO). Also on record: method as in Dong et al. (2020). Particulars: ref Dong et al. (2020); read-out: AUR assay IC50, CHO-TPO; cited from earlier work.
The subject of series [5] is TPO (LentiX-TPO). Also on record: method as in Dong et al. (2020). Particulars: ref Dong et al. (2020); read-out: AUR assay IC50, LentiX-TPO; cited from earlier work.
In series [6] the test system is peroxidase activity (TPO) in FRTL-5 cell lysate. Nature of the series: TPO luminol (Lumi) assay, FRTL-5 cell lysate.
Method: The FRTL-5 (RRID:CVCL_0265), a spontaneously immortalized rat thyroid follicular cell line obtained from Sigma-Aldrich, was cultured in Coon F12 medium (Sigma-Aldrich) supplemented with L-Glutamine, hydrocortisone, somatostatin, TSH and 10% FBS.
(§5) HEPES solution (Sigma-Aldrich) was added to balance the pH.
as §2, §3
For the data analysis, GraphPad Prism™ (GraphPad Software, San Diego, USA) was used for curve-fitting and IC50 or IC20 calculation. The signal (RLUs or fluorescence intensity) from the wells-containing cell lysate and chemical was background corrected (average RLUs or fluorescence intensity of lysate-free wells), then normalized to the solvent control (100% activity).
Series [7] deals with peroxidase activity in HEK293T cell lysate (no TPO expression). Nature of the series: TPO luminol (Lumi) assay, HEK293T cell lysate.
Method: The HEK293T (RRID:CVCL_0063), a human embryonal kidney SV40 transformed immortalized cell line obtained from ATCC, as well as the derived TPO-transfected HEK293T cell line, were cultured in DMEM High Glucose media (Biosera, BioTech) supplemented with 10% FBS.
as §5, §2, §3, §4
Series [8] has as its system TPO (rat thyroid microsomes). Also on record: method as in Friedman et al. 2016. Particulars: microsomes from 120 pooled rat thyroids; ref Friedman et al. 2016; cited from earlier work.
Series [9] deals with peroxidase activity (TPO) in Nthy-ori 3-1 cell lysate. Also on record: method as in Jomaa et al. (2015). Particulars: ref Jomaa et al. (2015); read-out: Lumi assay IC50, Nthy-ori 3-1; cited from earlier work.
Series [10] relates to TPO (Nthy-ori 3-1). Also on record: method as in Jomaa et al. (2015). Particulars: ref Jomaa et al. (2015); read-out: AUR assay IC50, Nthy-ori 3-1; cited from earlier work.
The test system of series [11] is peroxidase activity (TPO) in Nthy-ori 3-1 cell lysate. Nature of the series: TPO luminol (Lumi) assay, Nthy-ori 3-1 cell lysate. Particulars: read-out: Lumi assay IC50, Nthy-ori 3-1.
Method: as §2, §3, §4
Series [12] can be described thus: Solubility of triclosan (PubChem). It is filed as physicochemical. Particulars: 20 °C; equivalent of 10 mg/L; ref PubChem.
Setting [13] is: current study, n ≥ 3, hematin pre-treated cells, NA = not active up to the highest tested concentration, read-out: Lumi assay IC50, HEK-TPOA7.
The mark [14] stands for this setting: current study, n ≥ 3, pH 7.2, 40 µM H2O2, NA = not active up to the highest tested concentration, read-out: AUR assay IC50, HEK-TPOA7.
[15] abbreviates: lysate of cells with hematin pre-treatment, unit inferred, read-out: IC50, HEK-TPOA7, AUR assay, hematin +.
Setting [16] is: lysate of cells without hematin pre-treatment, unit inferred, read-out: IC50, HEK-TPOA7, AUR assay, hematin -.
Where [17] appears, read: read-out: IC50, AUR assay, H2O2 300uM, HEK-TPOA7 lyzate, n=2, unit not given in Table S6.
Setting [18] is: read-out: IC50, FRTL-5, Lumi assay, hematin +, lysate of cells with hematin pre-treatment, unit inferred.
The mark [19] stands for this setting: read-out: Lumi assay IC50, FRTL-5, current study, n ≥ 3, NA = not active up to the highest tested concentration.
[20] abbreviates: lysate of cells without hematin pre-treatment, unit inferred, read-out: IC50, HEK-TPOA7, Lumi assay, hematin -.
Where [21] appears, read: IC50, AUR assay, H2O2 300uM, HEK-TPOA7 lyzate, n=2, unit not given in Table S6.
Setting [22] is: read-out: Lumi assay IC50, HEK293T, current study, PTU n = 2.
[23] abbreviates: IC20 shown where IC50 was not reached, read-out: AUR assay IC20, HEK-TPOA7.

SMILES strings stand for the structures. Where two headings read alike, the source gives them in different places.

Broadly, the IC50 is the concentration that gives 50% inhibition. `O=C(c1ccc(O)cc1O)c1ccc(O)cc1O` [BP2, 2,2′-4,4′-tetrahydroxy benzophenone]: the IC50 in series [1] (setting [13]) is 20.2 µM; in series [2] (setting [14]), 0.56 µM; in series [2] (setting [15]) it was 0.56 µM; in series [2] (setting [16]), 0.48 µM; in [2] (setting [17]), 0.64 µM; in series [3], 38.5 µM. Besides, the IC50 in [4] was 0.2 µM; in series [5] it was 0.24 µM; in series [6] (setting [18]), 31.4 µM; in series [6] (setting [19]) it was 29.6 µM.
As for `CC(C)(c1ccc(O)cc1)c1ccc(O)cc1` [BPA, Bisphenol A], the IC50 in [1] (setting [13]) was 130 µM; in [1] (setting [20]), 107 µM; in series [2] (setting [21]) it was 10.9 µM; in [2] (setting [15]) it was 10.6 µM; in series [2] (setting [16]), 8.29 µM; in [3], 120 µM. Also, the figures for the IC50 in series [6] (setting [18]), in series [6] (setting [19]) and in series [7] (setting [22]) were 166 µM, 143 µM and 122 µM, respectively.
Turning to `S=C1NCCN1` [ETU, Ethylene thiourea], the “TPO inhibition in rat thyroid-based AUR assay (ToxCast)” value in series [8] is listed as “quantifiable IC50”.
On to `Cn1cc[nH]c1=S` [MMI, Methimazole, reference compound], for which the IC50 in series [1] (setting [13]) amounted to 3.24 µM; in series [2] (setting [21]), 1.33 µM; in series [2] (setting [14]), 1.5 µM; in series [2] (setting [15]) it was 1.5 µM; in series [2] (setting [16]), 1.12 µM; in series [3], 3.91 µM. Besides, the IC50 in series [9] is 4 µM; in series [10], 2.7 µM; in series [4], 0.49 µM; in series [5], 0.23 µM; in series [6] (setting [18]), 3.59 µM; in series [6] (setting [19]) it was 3.69 µM.
A word on the IC20: it is the point of the concentration-response curve where the effect stands at 20%. For `O=C(O)C(F)(F)C(F)(F)C(F)(F)C(F)(F)C(F)(F)C(F)(F)C(F)(F)F` [PFOA, Perfluorooctanoic acid], the IC20 is 110 µM in [1] (IC20 shown where IC50 was not reached) and 5.15 µM in series [2] (setting [23]).
As for `CCCc1cc(=O)[nH]c(=S)[nH]1` [PTU, 6-propylthiouracil, reference compound], the IC50 in series [3] is 11.7 µM; in series [9], 16.4 µM; in [10] it was 35.2 µM; in [4] it was 4.9 µM; in series [5], 10.4 µM; in series [6] (setting [18]), 12.5 µM. In addition, the 50% inhibitory concentration (IC50) was 13.2 µM in [6] (setting [19]) and 18.9 µM in [7] (setting [22]).
With `Oc1cccc(O)c1` [RSC, Resorcinol], the half-maximal inhibitory concentration (IC50) in series [1] (setting [13]) was determined as 17.9 µM; in series [2] (IC50, AUR assay, H2O2 40uM, HEK-TPOA7 lyzate, n=2, unit not given in Table S6), 0.36 µM; in series [2] (setting [21]), 0.61 µM; in series [2] (setting [14]), 0.358 µM; in [2] (setting [15]), 0.36 µM; in series [2] (setting [16]), 0.36 µM. Moreover, the IC50 was 13.8 µM in [3]; 0.05 µM in [4]; 0.06 µM in series [5]; 13.9 µM in series [6] (setting [18]); 15.7 µM in series [6] (setting [19]).
As for `Cc1cc(NS(=O)(=O)c2ccc(N)cc2)no1` [SMX, Sulfamethoxazol, reference compound], the IC20 in series [2] (HEK-TPOA7 lyzate, n=2, starred chemicals, unit not given in Table S6, read-out: IC20, AUR assay, H2O2 300uM) came out at 140 µM; in series [2] (setting [23]), 101 µM.
On to `CC(C)(c1cc(Br)c(O)c(Br)c1)c1cc(Br)c(O)c(Br)c1` [TBBPA, Tetrabromobisphenol A], for which the IC50 in [1] (setting [13]) came out at 90.9 µM; in series [1] (setting [20]) it was 107 µM; in [2] (setting [14]) it was 8.65 µM; in [2] (setting [15]), 8.65 µM; in series [2] (setting [16]), 8.2 µM; in series [2] (setting [17]) it was 6.5 µM. Further, the IC50 in [6] (setting [18]) came to 190 µM; in series [6] (setting [19]), 130 µM; in series [7] (read-out: IC50, HEK293T, Lumi assay, hematin +, lysate of cells with hematin pre-treatment, unit inferred) it was 87.1 µM; in [7] (setting [22]), 64.4 µM; in series [11], 77.2 µM.
Regarding `Oc1cc(Cl)ccc1Oc1ccc(Cl)cc1Cl` [TCS, Triclosan], the IC50 in series [1] (setting [13]) was 38.4 µM; in series [2] (HEK-TPOA7, pH 8.8 (SD = 14), read-out: AUR assay IC50 at higher pH) it was 72.7 µM; in series [2] (setting [21]), 165 µM; in series [2] (setting [15]), 197 µM; in series [4], above 253 µM; in series [5], above 253 µM. For the same compound, the IC50 in [6] (setting [18]) turned out to be 46.2 µM; in series [6] (setting [19]), 67.9 µM; in series [7] (setting [22]) it was 47.8 µM; in series [11] it was 51 µM. Besides, the “solubility (equivalent)” value in series [12] came out at 34.5 µM.

(Values after paper PMC11272733, “In vitro assessment of thyroid peroxidase inhibition by chemical exposure: comparison of cell models and detection methods” (Archives of Toxicology, 2024).)
